The target in one test is T1, L1 transport system (large neutral amino acid carrier, L1-system carrier) (Rattus norvegicus, UniProt Q63016).
T1 construct: functionality of their endogenous transporters such as the L1-system carrier; endogenous in cells; host or cells: rat primary cerebrovascular (brain microcapillary) endothelial cells, RBEC
T1 sequence (Q63016 whole entry): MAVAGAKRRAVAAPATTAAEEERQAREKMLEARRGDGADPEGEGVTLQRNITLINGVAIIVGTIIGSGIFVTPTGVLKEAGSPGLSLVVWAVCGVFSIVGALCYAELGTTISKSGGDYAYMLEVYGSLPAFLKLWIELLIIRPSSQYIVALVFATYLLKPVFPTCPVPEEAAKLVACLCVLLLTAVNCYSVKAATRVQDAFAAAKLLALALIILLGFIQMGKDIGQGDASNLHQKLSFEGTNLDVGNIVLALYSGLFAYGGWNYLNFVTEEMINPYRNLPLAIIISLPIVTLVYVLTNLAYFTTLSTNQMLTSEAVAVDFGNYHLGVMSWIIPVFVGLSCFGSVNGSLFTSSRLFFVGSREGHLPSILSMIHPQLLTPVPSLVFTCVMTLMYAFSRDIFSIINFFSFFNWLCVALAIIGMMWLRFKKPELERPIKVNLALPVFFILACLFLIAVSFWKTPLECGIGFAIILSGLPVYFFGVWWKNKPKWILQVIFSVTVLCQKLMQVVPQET
T1 sequence (Q794F9 whole entry partner): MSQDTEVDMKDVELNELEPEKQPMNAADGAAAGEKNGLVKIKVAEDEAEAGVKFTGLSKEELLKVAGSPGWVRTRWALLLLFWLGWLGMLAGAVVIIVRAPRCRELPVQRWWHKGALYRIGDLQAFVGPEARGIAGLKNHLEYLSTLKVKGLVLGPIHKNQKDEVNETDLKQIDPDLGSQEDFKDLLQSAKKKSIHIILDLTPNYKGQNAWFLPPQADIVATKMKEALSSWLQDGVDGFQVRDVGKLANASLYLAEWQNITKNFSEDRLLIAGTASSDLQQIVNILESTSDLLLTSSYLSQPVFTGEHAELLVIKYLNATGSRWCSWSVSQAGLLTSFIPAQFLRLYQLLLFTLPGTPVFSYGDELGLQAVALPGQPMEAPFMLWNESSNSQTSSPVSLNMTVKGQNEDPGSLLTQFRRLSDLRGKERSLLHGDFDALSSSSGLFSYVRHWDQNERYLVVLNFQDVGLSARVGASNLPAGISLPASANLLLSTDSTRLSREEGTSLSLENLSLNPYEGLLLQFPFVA
Put plainly: Competitive binding assay to the brain L1 transport system (L-[U-14C]phenylalanine on rat primary cerebrovascular endothelial cells). Conditions: 10^−4 M. As for the experimental part:
Compound samples in PBS (without Ca^+2, Mg^+2)-glucose 30 mM-HEPES 10 mM—DMSO 1% as prepared in Example 1 were thawed and left for at least 30 minutes at 20-23° C. before preparation of the following sub-dilutions for the competitive binding assay: • 200 μL of the stock solution were added to 800 μL PBS (without Ca^+2, Mg^+2)-Glucose-HEPES-1% DMSO (PBSD-1) [diluted 1:5 for a final 1:5 dilution] • 100 μL (1/5 dilution above) were added to 900 μL PBSD-1 [diluted 1:10 for a final 1:50 dilution] • 100 μL (1/50 dilution above) were added to 900 μL PBSD-1 [diluted 1:10 for a final 1:500 dilution]
These sub-dilutions were used immediately or stored overnight at 4° C. before the competitive binding assay. A volume of 45 μL of each of the compound dilutions (1:5, 1:50, 1:500) in PBSD-1 was added to the appropriate wells in the dilution plate.
Brains from sixty 24-day-old rats were dissected individually on a sterile lint moistened with ice cold Hanks' balanced salt solution (Gibco BRL, Grand Island, N.Y.) containing 10 mM HEPES (medium 1) supplemented with 0.1% BSA. Cerebellum, striatum, optic nerves, and brain stem (white matter) were removed. After a mid-sagittal section of the brain, the meninges and leptomeningeal debris were removed by rolling a sterile dry cotton swab on the cortices. (Ichikawa N, Naora K, Hirano H, Hashimoto M, Masumura S, and Iwamoto K (1996). Isolation and primary culture of rat cerebral microvascular endothelial cells for studying drug transport in vitro. J Pharmacol Toxicol Meth 36: 45-52.). Clean cortices were minced in pieces of ≈2 mm^3 in 15 mL of ice-cold medium 1-0.1% BSA. The preparation was divided into 4 sterile pre-weighed tubes and centrifuged at 330× g at 20-25° C. for 5 min. Tubes were weighed and pre-warmed (37° C.) and medium 1 with 0.5% BSA containing 0.3% collagenase and 10 μg/mL DNAse 1 (Roche, Laval, Quebec, Canada) were added to each tube (1 mL/g of tissue).
The brain-collagenase mixture was vigorously agitated in a water bath at 37° C. for 90 min. Fifteen min before the end of the digestion, the tissue was homogenized using a 10-mL pipette until a creamy mixture was obtained (≈20 aspirations). Cells were washed by adding medium 1 with 0.1% BSA to the homogenate (26 mL/tube) and centrifuged at 100× g at 20-25° C. for 7 min. This washing step was repeated 3 more times, once for 5 min and twice for 3 min. Each pellet was re-suspended in 25 mL of a 15% dextran solution prepared in medium 1 with 0.1% BSA and centrifuged at 3200× g at 4° C. for 25 min to isolate vessels from neural tissue and dextran layers. Vascular pellets were re-suspended in 5 mL Ca^++—Mg^++-free-medium 1 with 0.1% BSA (medium 2) at 20-25° C. and transferred in a 50-mL tube. Remaining vessels were collected by rinsing the tubes and pooling the rinsing suspension. (Rupnick M A, Carey A, and Williams S K (1988). Phenotypic diversity in cultured cerebral microvascular endothelial cells in vitro. Cell Develop Biol 24: 435-444.)
The vascular preparation was filtered and rinsed (20 mL of medium 2) through a sterile 355-μm mesh. The 355-μm filtrate was sequentially filtered twice (20 mL of medium 2) through sterile 112-μm meshes and rinsed (Stanimirovic D B, Wong J, Ball R, and Durkin J P (1995). Free radical-induced endothelial membrane dysfunction at the site of the blood-brain barrier: relationship between lipid peroxidation, Na,K-ATPase activity, and ^51Cr release. Neurochem Res 20:1417-1427.) and the latter filtrate was filtered and rinsed through a sterile 20-μm mesh. A final step of filtration and rinse was repeated through a double layer of 20-μm meshes. All 20-μm meshes, which retained the microcapillaries, were then transferred into a 50-mL tube containing 20 mL of a 0.1% collagenase/dispase (Roche) solution in medium 2 supplemented with 10 μg/mL DNAse 1 and 0.147 μg/mL tosyl-lysine-chloromethyl-ketone (Sigma Chemical Co., Oakville, Ontario, Canada) (medium 3).
As to `NC(Cc1cccc(CSc2ncnc3[nH]ncc23)n1)C(=O)O` (stereo not drawn) [Compound 33], the “Comparison with the Binding of Phenylalanine” value (shortened to “Comparison with the Binding”) was 3 (X > 20 Rank 3).
Still for that read-out and setting: the same measure for `NC(=O)C(N)Cc1cccc(CSc2ncnc3[nH]ncc23)n1` (stereo not drawn) [Compound 34]: 0 (X < 0 Rank 0).
For the compound `NC(Cc1cccc(CSc2nnc[nH]2)n1)C(=O)O` (stereo not drawn) [Compound 35], the “Comparison with the Binding” value is recorded as 0 (X < 0 Rank 0).
`Nc1ccnc(SCc2cccc(CC(N)C(=O)O)n2)n1` (stereo not drawn) [Compound 38]: the “Comparison with the Binding” value is listed as 2 (10 < X < 20 Rank 2).
As for `NC(=O)C(N)Cc1cccc(CSc2nccc(N)n2)n1` (stereo not drawn) [Compound 39], the “Comparison with the Binding” value is 0 (X < 0 Rank 0).
Turning to `NC(Cc1cccc(-c2cccc(N3CC=CCC3)c2)c1)C(=O)O` (stereo not drawn) [Compound 43], the “Comparison with the Binding” value is 0 (X < 0 Rank 0).
As for `NC(Cc1ccc(-c2ccc(CN3CC=CCC3)cc2)cc1)C(=O)O` (stereo not drawn) [Compound 44], the “Comparison with the Binding” value was 0 (X < 0 Rank 0).
For the compound `NC(Cc1cccc(CSc2ccnc3cc(C(F)(F)F)ccc23)n1)C(=O)O` (stereo not drawn) [Compound 45], the “Comparison with the Binding” value is 0 (X < 0 Rank 0).
As to `NC(Cc1ccc(-c2ccc(CSc3ccnc4cc(C(F)(F)F)ccc34)cc2)cc1)C(=O)O` (stereo not drawn) [Compound 47], the “Comparison with the Binding” value was 0 (X < 0 Rank 0).
On the same count and under the same terms, the same measure for `N[C@@H](Cc1ccccc1)C(=O)NC(Cc1cccc(CSc2nnc(-c3ccccc3)o2)c1)C(=O)O` (stereo partly drawn) [Compound 48]: 0 (X < 0 Rank 0); for `O=C(Nc1ccc(-c2ccccc2)cc1)NC(Cc1cccc(CSc2nnc(-c3ccccc3)o2)c1)C(=O)O` (stereo not drawn) [Compound 49]: 2 (10 < X < 20 Rank 2).

Staying with this test, now noted: 10^−5 M.
In the case of `NC(Cc1cccc(CSc2ncnc3[nH]ncc23)n1)C(=O)O` (stereo not drawn) [Compound 33], the “Comparison with the Binding” value is given as 3 (X > 20 Rank 3).
Still for that read-out and setting: the same measure for `NC(=O)C(N)Cc1cccc(CSc2ncnc3[nH]ncc23)n1` (stereo not drawn) [Compound 34]: 0 (X < 0 Rank 0).
Same read-out and setting: the same measure for `NC(Cc1cccc(CSc2nnc[nH]2)n1)C(=O)O` (stereo not drawn) [Compound 35]: 0 (X < 0 Rank 0); for `Nc1ccnc(SCc2cccc(CC(N)C(=O)O)n2)n1` (stereo not drawn) [Compound 38]: 3 (X > 20 Rank 3).
Consider `NC(=O)C(N)Cc1cccc(CSc2nccc(N)n2)n1` (stereo not drawn) [Compound 39], for which the “Comparison with the Binding” value is on record as 2 (10 < X < 20 Rank 2).
`NC(Cc1cccc(-c2cccc(N3CC=CCC3)c2)c1)C(=O)O` (stereo not drawn) [Compound 43]: the “Comparison with the Binding” value was 2 (10 < X < 20 Rank 2).
As to `NC(Cc1ccc(-c2ccc(CN3CC=CCC3)cc2)cc1)C(=O)O` (stereo not drawn) [Compound 44], the “Comparison with the Binding” value is listed as 1 (0 < X < 10 Rank 1).
The same measure, in the same setting: the same measure for `NC(Cc1cccc(CSc2ccnc3cc(C(F)(F)F)ccc23)n1)C(=O)O` (stereo not drawn) [Compound 45]: 2 (10 < X < 20 Rank 2).
`NC(Cc1ccc(-c2ccc(CSc3ccnc4cc(C(F)(F)F)ccc34)cc2)cc1)C(=O)O` (stereo not drawn) [Compound 47]: the “Comparison with the Binding” value is 2 (10 < X < 20 Rank 2).
In the case of `N[C@@H](Cc1ccccc1)C(=O)NC(Cc1cccc(CSc2nnc(-c3ccccc3)o2)c1)C(=O)O` (stereo partly drawn) [Compound 48], the “Comparison with the Binding” value is given as 1 (0 < X < 10 Rank 1).
The same measure, in the same setting: the same measure for `O=C(Nc1ccc(-c2ccccc2)cc1)NC(Cc1cccc(CSc2nnc(-c3ccccc3)o2)c1)C(=O)O` (stereo not drawn) [Compound 49]: 3 (X > 20 Rank 3).

The test is the same for the next values; noted with them: 10^−6 M.
On to `NC(Cc1cccc(CSc2ncnc3[nH]ncc23)n1)C(=O)O` (stereo not drawn) [Compound 33], for which the “Comparison with the Binding” value is 3 (X > 20 Rank 3).
On the same count and under the same terms, the same measure for `NC(=O)C(N)Cc1cccc(CSc2ncnc3[nH]ncc23)n1` (stereo not drawn) [Compound 34]: 1 (0 < X < 10 Rank 1).
Regarding `NC(Cc1cccc(CSc2nnc[nH]2)n1)C(=O)O` (stereo not drawn) [Compound 35], the “Comparison with the Binding” value is listed as 3 (X > 20 Rank 3).
Still for that read-out and setting: the same measure for `Nc1ccnc(SCc2cccc(CC(N)C(=O)O)n2)n1` (stereo not drawn) [Compound 38]: 3 (X > 20 Rank 3); for `NC(=O)C(N)Cc1cccc(CSc2nccc(N)n2)n1` (stereo not drawn) [Compound 39]: 3 (X > 20 Rank 3); for `NC(Cc1cccc(-c2cccc(N3CC=CCC3)c2)c1)C(=O)O` (stereo not drawn) [Compound 43]: 0 (X < 0 Rank 0).
On to `NC(Cc1ccc(-c2ccc(CN3CC=CCC3)cc2)cc1)C(=O)O` (stereo not drawn) [Compound 44], for which the “Comparison with the Binding” value is 0 (X < 0 Rank 0).
Still for that read-out and setting: the same measure for `NC(Cc1cccc(CSc2ccnc3cc(C(F)(F)F)ccc23)n1)C(=O)O` (stereo not drawn) [Compound 45]: 0 (X < 0 Rank 0).
`NC(Cc1ccc(-c2ccc(CSc3ccnc4cc(C(F)(F)F)ccc34)cc2)cc1)C(=O)O` (stereo not drawn) [Compound 47]: the “Comparison with the Binding” value is on record as 2 (10 < X < 20 Rank 2).
The same measure, in the same setting: the same measure for `N[C@@H](Cc1ccccc1)C(=O)NC(Cc1cccc(CSc2nnc(-c3ccccc3)o2)c1)C(=O)O` (stereo partly drawn) [Compound 48]: 1 (0 < X < 10 Rank 1); for `O=C(Nc1ccc(-c2ccccc2)cc1)NC(Cc1cccc(CSc2nnc(-c3ccccc3)o2)c1)C(=O)O` (stereo not drawn) [Compound 49]: 3 (X > 20 Rank 3).
